This is an account of results in US6448255B1, “Imidazo-isoquinolin-5-one derivatives, pyrimido-isoquinolin-6-one derivatives and imidazo-naphthyridin-5-one derivatives” (Wyeth, priority 2000, dated 2002).

As usually defined, the melting point is the temperature, or range, at which the solid turns liquid.

In data set [1] the test system is blood serum HDL cholesterol. Nature of the data set: determination of HDL cholesterol in serum of cholesterol/cholic acid-fed rats. The settings on record: Dose 100 mg/kg/day mixed in diet, 8 days; rats fed chow with 0.25% cholic acid and 1.0% cholesterol; serum HDL cholesterol by FPLC. The data set is classed as in vivo, Male Sprague-Dawley rats. On the procedure:
The ability of the compounds of this invention to increase blood serum HDL levels was established by the following standard experimental procedure for determination of HDL cholesterol:
Male Sprague-Dawley rats weighing 200-225 g were housed two per cage and fed Purina Rodent Chow Special Mix 5001-S supplemented with 0.25% cholic acid and 1.0% cholesterol and water ad libitum for 8 days. Each test substance was administered to a group of six rats fed the same diet with the test diet mixed in as 0.005-0.1% of the total diet. Body weight and food consumption were recorded prior to diet administration and at termination. Typical doses of the test substances were 5-100 mg/kg/day.
At termination, blood was collected from anesthetized rats and the serum was separated by centrifugation. Total serum cholesterol was assayed using the Sigma Diagnostics enzymatic kit for the determination of cholesterol, Procedure No. 352, modified for use with ninety-six well microtiter plates. After reconstitution with water the reagent contains 300 U/I cholesterol oxidase, 100 U/I cholesterol esterase, 1000 U/I horse radish peroxidase, 0.3 mmoles/l 4-aminoantipyrine and 30.0 mmoles/l p-hydroxybenzenesulfonate in a pH 6.5 buffer. In the reaction cholesterol was oxidized to produce hydrogen peroxide which was used to form a quinoneimine dye. The concentration of dye formed was measured spectrophotometrically by absorbency at 490 nm after incubation at 25° C. for 30 minutes. The concentration of cholesterol was determined for each serum sample relative to a commercial standard from Sigma.
HDL cholesterol concentrations in serum were determined by separation of lipoprotein classes by fast protein liquid chromatography (FPLC) by a modification of the method of Kieft et al., J. Lipid Res., 32 (1991) 859-866. 25 ul of serum was injected onto Superose 12 and Superose 6 (Pharmacia), in series, with a column buffer of 0.05 M Tris (2-amino-2-hydroxymethyl-1,3-propanediol) and 0.15 M sodium chloride at a flow rate of 0.5 ml/min. The eluted sample was mixed on line with Boehringer-Mannheim cholesterol reagent pumped at […]. The combined eluents were mixed and incubated on line through a knitted coil (Applied Biosciences) maintained at a temperature of 45 C. The eluent was monitored by measuring absorbence at 490 nm and gave a continuous absorbence signal proportional to the cholesterol concentration. The relative concentration of each lipoprotein class was calculated as the percent of total absorbence. HDL cholesterol concentration, in serum, was calculated as the percent of total cholesterol as determined by FPLC multiplied by the total serum cholesterol concentration.

In the case of `CC1(C)CN2C(=O)c3ccccc3C(O)(c3ccccc3)C2=N1` (stereo not drawn) [Example 1, 10-Hydroxy-2,2-dimethyl-10-phenyl-2,10-dihydroimidazo[1,2-b]isoquinolin-5(3H)-one], the melting point was 186 to 188 °C. Besides, the “HDL Cholesterol Level Increase (%)” value in data set [1] stood at 55%.

The molecule `O=C1c2ccccc2C(O)(c2ccc(F)cc2)C2=NCCCN12` (stereo not drawn) [Example 2, 11-(4-Fluorophenyl)-11-hydroxy-2,3,4,11-tetrahydro-6H-pyrimido[1,2-b]isoquinolin-6-one] showed a melting point of 126 to 128 °C. The “HDL Cholesterol Level Increase (%)” value in data set [1] amounted to 22%.

As for `CC1(C)CN2C(=O)c3ccccc3C(O)(c3ccc(F)cc3)C2=N1` (stereo not drawn) [Example 3, 10-(4-Fluorophenyl)-10-hydroxy-2,2-dimethyl-2,10-dihydroimidazo[1,2-b]isoquinolin-5(3H)-one], the melting point fell in the range of 168 to 170 °C. Besides, the “HDL Cholesterol Level Increase (%)” value in data set [1] amounted to 90%.

As to `O=C1c2ccccc2C(O)(c2ccc(F)cc2)C2=NC3CCCCC3N12` (stereo not drawn) [Example 4, 6-(4-Fluorophenyl)-6-hydroxy-1,3,4,4a,6,12a-hexahydrobenzimidazo[1,2-b]isoquinolin-11(2H)-one], the melting point was in the range of 203 to 205 °C. Besides, the “HDL Cholesterol Level Increase (%)” value in data set [1] came to 21%.

Consider `C[C@@H]1CN2C(=O)c3ccccc3[C@@](O)(c3ccc(F)cc3)C2=N1` [Example 5, (2R, 10S)-10-(4-Fluorophenyl)-10-hydroxy-2-methyl-2,10-dihydroimidazo[1,2-b]isoquinolin-5(3H)-one], for which the melting point was 229 to 232 °C. For the same molecule, the “HDL Cholesterol Level Increase (%)” value in data set [1] was determined as 105%.

As for `C[C@H]1CN2C(=O)c3ccccc3[C@@](O)(c3ccc(F)cc3)C2=N1` [Example 6, (2S,10S)-10-(4-Fluorophenyl)-10-hydroxy-2-methyl-2,10-dihydrolmidazo[1,2-b]isoquinolin-5(3H)-one], in data set [1], the “HDL Cholesterol Level Increase (%)” value was 38%.

As for `CC1(C)CN2C(=O)c3ncccc3C(O)(c3ccc(Cl)cc3)C2=N1` (stereo not drawn) [Example 7, 10-(4-Chlorophenyl)-10-hydroxy-2,2-dimethyl-2,10-dihydroimidazo[2,1-g][1,7]naphthyridin-5(3H)-one], the melting point was 257 to 260 °C. Further, in data set [1], the “HDL Cholesterol Level Increase (%)” value stood at 49%.

`O=C1c2ccccc2C(O)(c2ccc(Cl)cc2)C2=NCCCN12` (stereo not drawn) [Example 8, 11-(4-Chlorophenyl)-11-hydroxy-2,3,4,11-tetrahydro-6H-pyrimido[1,2-b]isoquinolin-6-one] had a melting point of 128 to 130 °C.

Turning to `CC1(C)CN2C(=O)c3ccccc3C(O)(c3ccc(Cl)cc3)C2=N1` (stereo not drawn) [Example 10, 10-(4-Chlorophenyl)-10-hydroxy-2,2-dimethyl-2,10-dihydroimidazo[1,2-b]isoquinolin-5(3H)-one], the melting point lay in the range of 181 to 183 °C.

`O=C1c2ccccc2C(O)(c2ccc(Cl)cc2)C2=NCCN12` (stereo not drawn) [Example 11, 10-(4-Chlorophenyl)-10-hydroxy-2,10-dihydroimidazo[1,2-b]isoquinolin-5(3H)-one]: the melting point fell in the range of 235 to 237 °C.

For the molecule `O=C1c2ccccc2C(O)(c2ccccc2)C2=NCCN12` (stereo not drawn) [Example 12, 10-Hydroxy-10-phenyl-2,10-dihydroimidazo[1,2-b]isoquinolin-5(3H)-one], the melting point lay within 263 to 265 °C.

Regarding `O=C1c2ccccc2C(O)(c2ccc(Br)cc2)C2=NCCN12` (stereo not drawn) [Example 13, 10-(4-Bromophenyl)-10-hydroxy-2,10-dihydroimidazo[1,2-b]isoquinolin-5(3H)-one], the melting point was in the range of 212 to 215 °C.
